The results in this text go back to patent US10065972B2, “Bicyclic or tricyclic heterocyclic compound” (MITSUBISHI TANABE PHARMA CORPORATION, priority 2014, dated 2018).

In this experiment the target is human recombinant KAT-II (Homo sapiens (Human), UniProt Q8N5Z0). Kind of experiment: KAT-II inhibitory test. The experiment is classed as biochemical. Particulars: 3.0 μmol/L kynurenine, 37° C., 1 hr, pH 8.0; kynurenic acid quantified by HPLC. An outline of the steps: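 E. coli-expressed His/MBP-tagged human KAT-II (2.0 ng/μL) incubated with 3.0 μmol/L kynurenine and 10 μmol/L pyridoxal phosphate in Tris-acetate pH 8.0, 1 hr at 37 °C. Reaction stopped with TCA. Kynurenic acid quantified by reversed-phase HPLC with fluorescence detection (ex 354/em 460 nm), duplicate at each concentration.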
human recombinant KAT-II, sequence (Q8N5Z0 30-425): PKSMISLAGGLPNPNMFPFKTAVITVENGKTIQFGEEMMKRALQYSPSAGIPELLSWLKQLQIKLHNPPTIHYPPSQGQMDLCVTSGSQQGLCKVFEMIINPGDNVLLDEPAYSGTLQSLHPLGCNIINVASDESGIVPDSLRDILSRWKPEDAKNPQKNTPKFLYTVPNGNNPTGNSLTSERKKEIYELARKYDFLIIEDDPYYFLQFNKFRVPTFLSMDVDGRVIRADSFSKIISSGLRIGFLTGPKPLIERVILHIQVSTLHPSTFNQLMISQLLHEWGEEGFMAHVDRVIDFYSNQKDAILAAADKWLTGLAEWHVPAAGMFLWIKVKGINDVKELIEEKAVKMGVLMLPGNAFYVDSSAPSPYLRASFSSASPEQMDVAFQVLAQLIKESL
In general, IC50 refers to the point on the concentration scale where inhibition reaches its midpoint. `C[C@@H]1CN(C)Cc2nc3sc(N4CCC[C@@H]4C(=O)NCc4ccccc4)nc3c(=O)n21` [Example 601, (R)-N-benzyl-1-[(R)-6,8-dimethyl-10-oxo-5,7,8,10-tetrahydro-6H-pyrazino[1,2-a][1,3]thiazolo[5,4-d]pyrimidin-2-yl]pyrrolidine-2-carboxamide]: the IC50 was determined as 140 nM.

As to `CN1CCn2c1nc1sc(N3CCC[C@@H]3C(=O)NCc3ccccc3)nc1c2=O` [Example 602, (R)-N-benzyl-1-(5-methyl-9-oxo-5,6,7,9-tetrahydroimidazo[1,2-a][1,3]thiazolo[5,4-d]pyrimidin-2-yl)pyrrolidine-2-carboxamide], the IC50 is 31 nM.

Take `O=C(NCc1ccccc1)[C@H]1CCCN1c1nc2c(=O)n3c(nc2s1)C(F)(F)CCC3` [Example 605, (R)-N-benzyl-1-(5,5-difluoro-10-oxo-5,7,8,10-tetrahydro-6H-pyrido[1,2-a][1,3]thiazolo[5,4-d]pyrimidin-2-yl)pyrrolidine-2-carboxamide]: the IC50 worked out at 8.2 nM.

`CC(C)(O)c1nc2sc(N3CCC[C@@H]3C(=O)NCc3ccccc3)nc2c(=O)[nH]1` [Example 606, (R)-N-benzyl-1-[5-(2-hydroxypropan-2-yl)-7-oxo-6,7-dihydro[1,3]thiazolo[5,4-d]pyrimidin-2-yl]pyrrolidine-2-carboxamide]: the 50% inhibitory concentration (IC50) amounted to 7.6 nM.

In the case of `Cn1c(-c2ccccc2)nc2sc(N3CC[C@@H](N)[C@@H]3C(=O)NCc3ccccc3)nc2c1=O` [Example 611, (2R,3R)-3-amino-N-benzyl-1-(6-methyl-7-oxo-5-phenyl-6,7-dihydro[1,3]thiazolo[5,4-d]pyrimidin-2-yl)pyrrolidine-2-carboxamide], the IC50 amounted to 570 nM.

As for `CCc1nn(CC)c(=O)c2nc(N3CCC[C@@H]3C(=O)NCc3ccccc3)sc12` [Example 612, (R)-N-benzyl-1-(5,7-diethyl-4-oxo-4,5-dihydro[1,3]thiazolo[4,5-d]pyridazin-2-yl)pyrrolidine-2-carboxamide], the IC50 came to 52 nM.

For the compound `CCc1nn(C2CCOCC2)c(=O)c2nc(N3CCC[C@@H]3C(=O)NCc3ccccc3)sc12` [Example 613, (R)-N-benzyl-1-[7-ethyl-4-oxo-5-(tetrahydro-2H-pyran-4-yl)-4,5-dihydro[1,3]thiazolo[4,5-d]pyridazin-2-yl]pyrrolidine-2-carboxamide], the half-maximal inhibitory concentration (IC50) was determined as 22 nM.

For the compound `CCn1nc(C2CC2)c2sc(N3CCC[C@@H]3C(=O)NCc3ccccc3)nc2c1=O` [Example 614, (R)-N-benzyl-1-(7-cyclopropyl-5-ethyl-4-oxo-4,5-dihydro[1,3]thiazolo[4,5-d]pyridazin-2-yl)pyrrolidine-2-carboxamide], the IC50 amounted to 16 nM.

As for `Cc1nn(C2CCCCC2)c(=O)c2nc(N3CCC[C@@H]3C(=O)NCc3ccccc3)sc12` [Example 616, (R)-N-benzyl-1-(5-cyclohexyl-7-methyl-4-oxo-4,5-dihydro[1,3]thiazolo[4,5-d]pyridazin-2-yl)pyrrolidine-2-carboxamide], the IC50 amounted to 73 nM.

For the compound `O=C(NCc1ccccc1)[C@H]1CCCN1c1nc2c(=O)[nH]cc(C(F)(F)F)c2s1` [Example 617, (R)-N-benzyl-1-(4-oxo-7-trifluoromethyl-4,5-dihydro[1,3]thiazolo[4,5-c]pyridin-2-yl)pyrrolidine-2-carboxamide], the 50% inhibitory concentration (IC50) was found to be 240 nM.

Regarding `O=C(NCc1ccccc1)[C@H]1CCCN1c1nc2c(=O)[nH]c(C3CC3)c(Cl)c2s1` [Example 623, (R)-N-benzyl-1-(7-chloro-6-cyclopropyl-4-oxo-4,5-dihydro[1,3]thiazolo[4,5-c]pyridin-2-yl)pyrrolidine-2-carboxamide], the half-inhibitory concentration (IC50) turned out to be 22 nM.

For `O=C(NCc1ccccc1)[C@H]1CCCN1c1nc2c(=O)[nH]c(-c3ccccc3F)c(Cl)c2s1` [Example 624, (R)-N-benzyl-1-[7-chloro-6-(2-fluorophenyl)-4-oxo-4,5-dihydro[1,3]thiazolo[4,5-c]pyridin-2-yl]pyrrolidine-2-carboxamide], the IC50 is 15 nM.

On to `CC(C)(F)c1[nH]c(=O)c2nc(N3CCC[C@@H]3C(=O)NCc3ccccc3)sc2c1Cl` [Example 626, (R)-N-benzyl-1-[7-chloro-6-(2-fluoropropan-2-yl)-4-oxo-4,5-dihydro[1,3]thiazolo[4,5-c]pyridin-2-yl]pyrrolidine-2-carboxamide], for which the IC50 turned out to be 15 nM.

On to `CCOC1(c2cc3sc(N4CCC[C@@H]4C(=O)NCc4ccccc4)nc3c(=O)[nH]2)CC1` [Example 629, (R)-N-benzyl-1-[6-(1-ethoxycyclopropyl)-4-oxo-4,5-dihydro[1,3]thiazolo[4,5-c]pyridin-2-yl]pyrrolidine-2-carboxamide], for which the IC50 came to 47 nM.

Consider `Cn1c(C(F)(F)F)cc2sc(N3CCC[C@@H]3C(=O)NCc3ccccc3)nc2c1=O` [Example 631, (R)-N-benzyl-1-(5-methyl-4-oxo-6-trifluoromethyl-4,5-dihydro[1,3]thiazolo[4,5-c]pyridin-2-yl)pyrrolidine-2-carboxamide], for which the IC50 was 55 nM.

For `CCCc1cc(=O)n2nc(N3CCCC[C@@H]3C(=O)NCc3ccccc3)sc2n1` [Example 635, (R)-N-benzyl-1-(5-oxo-7-propyl-5H-[1,3,4]thiadiazolo[3,2-a]pyrimidin-2-yl) piperidine-2-carboxamide], the concentration for half-maximal inhibition (IC50) came out at 970 nM.

On to `Cc1cc(=O)n2nc(N3CCC[C@@H]3C(=O)NC(C)(C)c3ccccc3)sc2n1` [Example 636, (R)-1-(7-methyl-5-oxo-5H-[1,3,4]thiadiazolo[3,2-a]pyrimidin-2-yl)-N-(1-methyl-1-phenylethyl)pyrrolidine-2-carboxamide], for which the IC50 is 1500 nM.

Take `O=C(NCc1ccccc1)[C@H]1CCCN1c1nn2c(=O)cc(-c3ccccc3)nc2s1` [Example 638, (R)-N-benzyl-1-(5-oxo-7-phenyl-5H-[1,3,4]thiadiazolo[3,2-a]pyrimidin-2-yl)pyrrolidine-2-carboxamide]: the IC50 was 29 nM.

In the case of `O=C(NCc1ccccc1)[C@H]1CCCN1c1nn2c(=O)c3c(nc2s1)CCCC3` [Example 639, (R)-N-benzyl-1-(5-oxo-6,7,8,9-tetrahydro-5H-[1,3,4]thiadiazolo[2,3-b]quinazolin-2-yl)pyrrolidine-2-carboxamide], the IC50 worked out at 49 nM.

On to `O=C(NCc1ccccc1)[C@H]1CCCN1c1nn2c(=O)cc(C(F)(F)F)nc2s1` [Example 642, (R)-N-benzyl-1-(5-oxo-7-trifluoromethyl-5H-[1,3,4]thiadiazolo[3,2-a]pyrimidin-2-yl)pyrrolidine-2-carboxamide], for which the IC50 was 78 nM.

On to `CCc1cc(=O)n2nc(N3CCOC[C@@H]3C(=O)NCc3ccccc3)sc2n1` [Example 645, (R)-N-benzyl-4-(7-ethyl-5-oxo-5H-[1,3,4]thiadiazolo[3,2-a]pyrimidin-2-yl)morpholine-3-carboxamide], for which the half-maximal inhibitory concentration (IC50) was determined as 1600 nM.

As to `Cc1nc2sc(N3CCC[C@@H]3C(=O)NCc3ccccc3)nn2c(=O)c1C(C)C` [Example 647, (R)-N-benzyl-1-[7-methyl-5-oxo-6-(propan-2-yl)-5H-[1,3,4]thiadiazolo[3,2-a]pyrimidin-2-yl]pyrrolidine-2-carboxamide], the 50% inhibitory concentration (IC50) stood at 58 nM.

`Cc1nc2sc(N3CCC[C@@H]3C(=O)NCc3ccccc3)nn2c(=O)c1-c1ccccc1` [Example 648, (R)-N-benzyl-1-(7-methyl-5-oxo-6-phenyl-5H-[1,3,4]thiadiazolo[3,2-a]pyrimidin-2-yl)pyrrolidine-2-carboxamide]: the half-inhibitory concentration (IC50) was 46 nM.

Consider `CCc1nc2sc(N3CC(F)(F)C[C@@H]3C(=O)NCc3ccccc3)nn2c(=O)c1F` [Example 650, (R)-N-benzyl-1-(7-ethyl-6-fluoro-5-oxo-5H-[1,3,4]thiadiazolo[3,2-a]pyrimidin-2-yl)-4,4-difluoropyrrolidine-2-carboxamide], for which the IC50 was 2200 nM.

On to `CC(C)c1cc(=O)n2nc(N3CCC[C@@H]3C(=O)NCc3ccccn3)sc2n1` [Example 653, (R)-1-[5-oxo-7-(propan-2-yl)-5H-[1,3,4]thiadiazolo[3,2-a]pyrimidin-2-yl]-N-[(pyridin-2-yl)methyl]pyrrolidine-2-carboxamide], for which the IC50 worked out at 190 nM.

As for `O=C(NC1(c2ccccc2)CC1)[C@H]1CCCN1c1nn2c(=O)c3ccccc3nc2s1` [Example 655, (R)-1-(5-oxo-5H-[1,3,4]thiadiazolo[2,3-b]quinazolin-2-yl)-N-(1-phenylcyclopropyl)pyrrolidine-2-carboxamide], the half-inhibitory concentration (IC50) worked out at 29 nM.

For the compound `Cc1cc2c(=O)n3nc(N4CCC[C@@H]4C(=O)NCc4ccccc4)sc3nc2s1` [Example 656, (R)-N-benzyl-1-(6-methyl-8-oxo-8H-[1,3,4]thiadiazolo[3,2-a]thieno[2,3-d]pyrimidin-2-yl)pyrrolidine-2-carboxamide], the half-maximal inhibitory concentration (IC50) was 44 nM.

In the case of `CCc1nc2sc(N3CCC[C@@H]3C(=O)NCc3cc(C)ccn3)nn2c(=O)c1F` [Example 664, (R)-1-(7-ethyl-6-fluoro-5-oxo-5H-[1,3,4]thiadiazolo[3,2-a]pyrimidin-2-yl)-N-[(4-methylpyridin-2-yl)methyl]pyrrolidine-2-carboxamide], the 50% inhibitory concentration (IC50) was 560 nM.

`CCc1nc2sc(N3CCC[C@@H]3C(=O)NCc3ccccc3Cl)nn2c(=O)c1F` [Example 678, (R)-N-(2-chlorobenzyl)-1-(7-ethyl-6-fluoro-5-oxo-5H-[1,3,4]thiadiazolo[3,2-a]pyrimidin-2-yl)pyrrolidine-2-carboxamide]: the IC50 worked out at 19 nM.

As for `CCc1nc2sc(N3CCC[C@@H]3C(=O)NCc3ncccn3)nn2c(=O)c1F` [Example 684, (R)-1-(7-ethyl-6-fluoro-5-oxo-5H-[1,3,4]thiadiazolo[3,2-a]pyrimidin-2-yl)-N-[(pyrimidin-2-yl)methyl]pyrrolidine-2-carboxamide], the IC50 worked out at 11000 nM.

For `CCc1nc2sc(N3CCC[C@@H]3C(=O)NCc3cnc(C)cn3)nn2c(=O)c1F` [Example 685, (R)-1-(7-ethyl-6-fluoro-5-oxo-5H-[1,3,4]thiadiazolo[3,2-a]pyrimidin-2-yl)-N-[(5-methylpyrazin-2-yl)methyl]pyrrolidine-2-carboxamide], the IC50 stood at 2200 nM.
